IC50 and MIC data for six molecules are collected here from patent US7446102B2, “Antibacterial amide macrocycles IV” (priority 2004, dated 2008).

One may read the IC50 as the concentration that gives 50% inhibition. Higher therefore signals lower potency. Usually MIC stands for the smallest concentration in the dilution series that meets the test's criterion for growth inhibition.

Converted amounts (≈) assume the structure as drawn. Counter-ions that a name gives are not always drawn. Like-named read-outs stand apart in the source and are kept apart here.

For test [1], the target named is S. aureus 133 translation. Description: S. aureus in vitro transcription-translation assay (firefly luciferase, S30 extract). Particulars: 50% inhibition of the translation of firefly luciferase. Format: biochemical. The source says:
In Vitro Transcription-Translation with S. aureus Extracts
Construction of an S. aureus Luciferase Reporter Plasmid
For the construction of a reporter plasmid which can be used in an in vitro transcription-translation assay from S. aureus the plasmid pBESTluc (Promega Corporation, USA) is used. The E. coli tac promoter present in this plasmid in front of the firefly luciferase is replaced by the capA1 promoter with appropriate Shine-Dalgarno sequence from S. aureus. The primers CAPFor 5′-[…] […] […]-3′ and CAPRev 5′-[…]-3′ are used for this. The primer CAPFor contains the capA1 promoter, the ribosome binding site and the 5′ region of the luciferase gene. After PCR using pBESTluc as template it is possible to isolate a PCR product which contains the firefly luciferase gene with the fused capA1 promoter. This is, after restriction with ClaI and HindIII, ligated into the vector pBESTluc which has likewise been digested with ClaI and HindIII. The resulting plasmid p1a is able to replicate in E. coli and be used as template in the S. aureus in vitro transcription-translation assay.
Preparation of S30 Extracts from S. aureus
Six liters of BHI medium are inoculated with a 250 ml overnight culture of an S. aureus strain and allowed to grow at 37° C. until the OD600 nm is 2-4. The cells are harvested by centrifugation and washed in 500 ml of cold buffer A (10 mM Tris acetate, pH 8.0, 14 mM magnesium acetate, 1 mM DTT, 1 M KCl). After renewed centrifugation, the cells are washed in 250 ml of cold buffer A with 50 mM KCl, and the resulting pellets are frozen at −20° C. for 60 min. The pellets are thawed on ice in 30 to 60 min and taken up in buffer B (10 mM Tris acetate, pH 8.0, 20 mM magnesium acetate, 1 mM DTT, 50 mM KCl) up to a total volume of 99 ml. 1.5 ml portions of lysostaphin (0.8 mg/ml) in buffer B are introduced into 3 precooled centrifuge cups and each is mixed with 33 ml of the cell suspension. The samples are incubated at 37° C., shaking occasionally, for 45 to 60 min, before 150 μl of a 0.5 M DTT solution are added. The lysed cells are centrifuged at 30 000×g and 4° C. for 30 min. The cell pellet is taken up in buffer B and then centrifuged again under the same conditions, and the collected supernatants are combined. The supernatants are centrifuged again under the same conditions, and 0.25 volumes of buffer C (670 mM Tris acetate, pH 8.0, 20 mM magnesium acetate, 7 mM Na3 phosphoenolpyruvate, 7 mM DTT, 5.5 mM ATP, 70 μM amino acids (complete from Promega), 75 μg of pyruvate kinase (Sigma, Germany))/ml are added to the upper ⅔ of the supernatant. The samples are incubated at 37° C. for 30 min. The supernatants are dialysed against 21 of dialysis buffer (10 mM Tris acetate, pH 8.0, 14 mM magnesium acetate, 1 mM DTT, 60 mM potassium acetate) in a dialysis tube with a 3500 Da cut-off with one buffer change at 4° C. overnight. The dialysate is concentrated to a protein concentration of about 10 mg/ml by covering the dialysis tube with cold PEG 8000 powder (Sigma, Germany) at 4° C. The S30 extracts can be stored in aliquots at −70° C.
Determination of the IC50 in the S. aureus In Vitro Transcription-Translation Assay
Inhibition of protein biosynthesis of the compounds can be shown in an in vitro transcription-translation assay. The assay is based on the cell-free transcription and translation of firefly luciferase using the reporter plasmid p1a as template and cell-free S30 extracts obtained from S. aureus. The activity of the resulting luciferase can be detected by luminescence measurement.
The amount of S30 extract or plasmid p1a respectively to be employed must be tested anew for each preparation in order to ensure an optimal concentration in the assay. 3 μl of the substance to be tested, dissolved in 5% DMSO, are introduced into an MTP. Then 10 μl of a suitably concentrated plasmid solution p1a are added. […]

For test [2], the system named is S. aureus 133. Description: Determination of the minimum inhibitory concentration (MIC), S. aureus 133. Format: cell-based. The protocol: (§1) Determination of the Minimum Inhibitory Concentration (MIC)
(§2) The minimum inhibitory concentration (MIC) is the minimum concentration of an antibiotic with which the growth of a test microbe is inhibited over 18-24 h. The inhibitor concentration can in these cases be determined by standard microbiological methods (see, for example, The National Committee for Clinical Laboratory Standards. Methods for dilution antimicrobial susceptibility tests for bacteria that grow aerobically; approved standard-fifth edition. NCCLS document M7-A5 [ISBN 1-56238-394-9]. NCCLS, 940 West Valley Road, Suite 1400, Wayne, Pa. 19087-1898 USA, 2000). The MIC of the compounds of the invention is determined in the liquid dilution test on the 96-well microtitre plate scale. The bacterial microbes are cultivated in a minimal medium (18.5 mM Na2HPO4, 5.7 mM KH2PO4, 9.3 mM NH4Cl, 2.8 mM MgSO4, 17.1 mM NaCl, 0.033 μg/ml thiamine hydrochloride, 1.2 μg/ml nicotinic acid, 0.003 μg/ml biotin, 1% glucose, 25 μg/ml of each proteinogenic amino acid with the exception of phenylalanine; [H.-P. Kroll; unpublished]) with the addition of 0.4% BH broth (test medium). In the case of Enterococcus facium L4001, heat-inactivated fetal calf serum (FCS; GibcoBRL, Germany) is added to the test medium in a final concentration of 10%. Overnight cultures of the test microbes are diluted to an OD578 of 0.001 (to 0.01 in the case of enterococci) in fresh test medium, and incubated 1:1 with dilutions of the test substances (1:2 dilution steps) in test medium (200 μl final volume). The cultures are incubated at 37° C. for 18-24 hours; enterococci in the presence of 5% CO2.
(§3) The lowest substance concentration in each case at which no visible bacterial growth occurred any more is defined as the MIC.
(§4) Alternative Method for Determining the Minimum Inhibitory Concentration (MIC)
(§5) The minimum inhibitory concentration (MIC) is the minimum concentration of an antibiotic with which the growth of a test microbe is inhibited over 18-24 h. The inhibitor concentration can in these cases be determined by standard microbiological methods with modified medium in an agar dilution test (see, for example, The National Committee for Clinical Laboratory Standards. Methods for dilution antimicrobial susceptibility tests for bacteria that grow aerobically; approved standard-fifth edition. NCCLS document M7-A5 [ISBN 1-56238-394-9]. NCCLS, 940 West Valley Road, Suite 1400, Wayne, Pa. 19087-1898 USA, 2000). The bacterial microbes are cultivated on 1.5% agar plates which contain 20% defibrinated horse blood. The test microbes, which are incubated overnight on Columbia blood agar plates (Becton-Dickinson), are diluted in PBS, adjusted to a microbe count of about […] and placed dropwise (1-3 μl) on test plates. The test substances comprise different dilutions of the test substances (1:2 dilution steps). The cultures are incubated at 37° C. in the presence of 5% CO2 for 18-24 hours.
(§6) The lowest substance concentration in each case at which no visible bacterial growth occurred any more is defined as the MIC and is reported in μg/ml.

The test system of test [3] is S. aureus T17. In words: Determination of the minimum inhibitory concentration (MIC), biphenomycin-resistant S. aureus T17. It is filed as cell-based. Particulars: Staphylococcus aureus, biphenomycin-resistant strain, no visible bacterial growth, 18-24 h, 37° C., read-out: MIC S. aureus T17. The method, then:
as §1, §2, §3, §4, §5, §6
The S. aureus strain T17 is isolated in vivo. CFW1 mice are infected intraperitoneally with 4×10^7 S. aureus 133 cells per mouse. 0.5 h after the infection, the animals are treated intravenously with 50 mg/kg biphenomycin B. The kidneys are removed from the surviving animals on day 3 after the infection. After homogenization of the organs, the homogenates are plated out as described for RN4220Bi^R on antibiotics-free and antibiotics-containing agar plates and incubated at 37° C. overnight. […] About 20 of these colonies are tested for the biphenomycin B MIC, and a colony with an MIC of >50 μM is selected for further cultivation, and the strain is referred to as T17.

Test [4] deals with E. faecium L4001. Description: Determination of the minimum inhibitory concentration (MIC), E. faecium L4001. Particulars: Enterococcus faecium. Format: cell-based. The method, then: as §1, §2, §3, §4, §5, §6
The mark [5] stands for this setting: Staphylococcus aureus, 133, read-out: MIC S. aureus 133.
Where [6] appears, read: L4001, read-out: MIC E. faecium L4001.
[7] abbreviates: Staphylococcus aureus, 133, no visible bacterial growth, 18-24 h, 37° C., read-out: MIC S. aureus 133.
Where [8] appears, read: L4001, no visible bacterial growth, 18-24 h, 37° C., 5% CO2, read-out: MIC E. faecium L4001.

In test [1], `NCCC[C@@H]1NC(=O)[C@@H](N)Cc2cc(ccc2O)-c2ccc(O)c(c2)C[C@@H](C(=O)N[C@@H](C[C@@H](O)CN)C(=O)NCCN)NC1=O` [Example 6, (8S,11S,14S)-14-Amino-N-((1S,3R)-4-amino-1-{[(2-aminoethyl)amino]carbonyl}-3-hydroxybutyl)-11-[3-aminopropyl]-5,17-dihydroxy-10,13-dioxo-9,12-diazatricyclo[14.3.1.1^2,6]henicosa-1(20),2(21),3,5,16,18-hexaene-8-carboxamide tetrahydrochloride] displayed an IC50 of 100 nM. Also, the MIC in test [2] (setting [5]) came to 1 µg/mL; in test [3], 2 µg/mL; in test [4] (setting [6]), 8 µg/mL.
The molecule `NCCC[C@H](NC(=O)[C@@H]1Cc2cc(ccc2O)-c2ccc(O)c(c2)C[C@H](N)C(=O)N[C@@H](CCCN)C(=O)N1)C(=O)NCCC[C@H](N)CC(=O)NCCN` [Example 10, (8S,11S,14S)-14-Amino-N-{(1S)-4-amino-1-[({(4R)-4-amino-6-[(2-aminoethyl)amino]-6-oxohexyl}amino)carbonyl]butyl}-1-(3-aminopropyl)-5,17-dihydroxy-10,13-dioxo-9,12-diazatricyclo[14.3.1.1^2,6]henicosa-1(20),2(21),3,5,16,18-hexaene-8-carboxamide pentahydrochloride] returned an IC50 in test [1] of 70 nM. Further, the MIC was 0.5 µg/mL in test [2] (setting [7]), 0.5 µg/mL in test [3] and 8 µg/mL in test [4] (setting [8]).
On to `NCCC[C@H](NC(=O)[C@@H]1Cc2cc(ccc2O)-c2ccc(O)c(c2)C[C@H](N)C(=O)N[C@@H](CCCN)C(=O)N1)C(=O)N[C@@H](CCN)C(=O)NCCN` [Example 13, (8S,11S,14S)-14-Amino-N-((1S)-4-amino-1-{[((1S)-3-amino-1-{[(2-aminoethyl)amino]carbonyl}propyl)amino]carbonyl}butyl)-11-(3-aminopropyl)-5,17-dihydroxy-10,13-dioxo-9,12-diazatricyclo[14.3.1.1^2,6]henicosa-1(20),2(21),3,5,16,18-hexaene-8-carboxamide pentahydrochloride], for which the IC50 in test [1] was determined as 60 nM. Besides, the MIC in test [2] (setting [5]) is 0.5 µg/mL; in test [3], 0.5 µg/mL; in test [4] (setting [6]) it was 16 µg/mL.
Regarding `N=C(N)NCCC[C@H](NC(=O)[C@@H]1Cc2cc(ccc2O)-c2ccc(O)c(c2)C[C@H](N)C(=O)N[C@@H](CCCN)C(=O)N1)C(=O)NCCN` [Example 14, (8S,11S,14S)-14-Amino-N-((1S)-1-{[(2-aminoethyl)amino]carbonyl}-4-{[amino(imino)methyl]amino}butyl)-11-(3-aminopropyl)-5,17-dihydroxy-10,13-dioxo-9,12-diazatricyclo[14.3.1.1^2,6]henicosa-1(20),2(21),3,5,16,18-hexaene-8-carboxamide pentahydrochloride], the IC50 in test [1] was 70 nM. Besides, the MIC in test [2] (setting [5]) is 1 µg/mL; in test [3], 2 µg/mL; in test [4] (setting [6]), 4 µg/mL.
The molecule `NCCC[C@H](N)CNC(=O)[C@H](CCCN)NC(=O)[C@@H]1Cc2cc(ccc2O)-c2ccc(O)c(c2)C[C@H](N)C(=O)N[C@@H](CCCN)C(=O)N1` [Example 16, (8S,11S,14S)-14-Amino-N-[(1S)-4-amino-1-({[(2S)-2,5-diaminopentyl]amino}carbonyl)butyl]-11-(3-aminopropyl)-5,17-dihydroxy-10,13-dioxo-9,12-diazatricyclo[14.3.1.1^2,6]henicosa-1(20),2(21),3,5,16,18-hexaene-8-carboxamide tetrahydrochloride] had an IC50 in test [1] of 100 nM. Moreover, the figures for the MIC in test [2] (setting [5]), in test [3] and in test [4] (setting [6]) were 2 µg/mL, 2 µg/mL and greater than 32 µg/mL, respectively.
In turn, `NCCC[C@@H]1NC(=O)[C@@H](N)Cc2cc(ccc2O)-c2ccc(O)c(c2)C[C@@H](C(=O)N[C@H](CO)CNC(=O)[C@@H](N)CCCN)NC1=O` [Example 23] displayed an IC50 in test [1] of 320 nM. For the same molecule, the MIC in test [2] (setting [7]) was 0.5 µg/mL (≈ 0.778 µM); in test [3] it was 1 µg/mL (≈ 1.56 µM); in test [4] (setting [8]) it was 4 µg/mL (≈ 6.22 µM).
